Source: PMC11547703, “Design, Synthesis, and Evaluation of Doxifluridine Derivatives as Nitroreductase-Responsive Anticancer Prodrugs” (Molecules, 2024)
Where two headings read alike, the source gives them in different places.

Key:
[1] = Stability of target compounds in rat plasma, HPLC; format: in vitro ADME, SD rat; conditions: 50 μM, 37 °C
Description: (§1) The stability of the target compounds was tested first, and excellent stability was essential for physiological function evaluation. Phosphate-buffered saline (PBS) of different pH values was used to evaluate the stability of the target compounds in a weakly acidic tumor microenvironment (pH 6.5) versus a weakly alkaline normal physiological environment (pH 7.4). […] The stability of the target compounds in mouse and rat plasma was excellent. The concentrations of all target compounds remained at >80% of the initial concentrations after 24 h, with the concentrations of compounds 1c, 2c, and 3c being 89%, 88%, and 83% in mouse plasma and 86%, 84%, and 81% in rat plasma, respectively (Figure 3c,d).
(§2) PBS (pH 7.4) was made with 137 mM NaCl, 2.7 mM KCl, 10 mM Na2HPO4, and 1.8 mM KH2PO4, while PBS (pH 6.5) was made with 24.6 mM Na2HPO4 and 175.4 mM NaH2PO4. The target compounds were dissolved into the different buffers (50 μM; 1% DMSO), and the mixtures were incubated at 37 °C. A 100-μL sample was transferred to a vial for HPLC analysis at 1, 2, 4, 8, 12, and 24 h. C57BL/6 mice and SD rat orbital whole blood was collected into anticoagulation tubes and centrifuged at 4000× g for 5 min at 4 °C to obtain plasma. The target compounds were dissolved into the plasma (50 μM; 1% DMSO) and incubated at 37 °C. Each sample (100 μL) was collected and precipitated using 100 μL of acetonitrile. The mixture was vortexed for 5 min and centrifuged at 10,000× g for 10 min. The supernatant was transferred to a vial for HPLC analysis after 1, 2, 4, 8, 12, and 24 h.

NTR = target: T1, NTR (Escherichia coli, UniProt P38489); assay: In vitro release evaluation: incubation with NTR and NADH, HPLC of derivative and released 5′-DFUR; format: biochemical; conditions: Escherichia coli; 50 µM compound, NTR 50 µg/mL, NADH 2 mM, PBS pH 7.4, 37 °C; read-out: half-life in the presence of NTR (converted)
T1 construct: host or cells: Escherichia coli
Description: (§3) NTR levels are reportedly much higher in hypoxic tumors than in normal tissues. To investigate the mechanism of activation of the derivatives and the amount of 5′-DFUR released, we treated the target compounds with NTR extracted from Escherichia coli to determine whether they provided the desired active agent as expected. The test compounds (50 µM, 1% dimethyl sulfoxide [DMSO]) were dissolved in PBS buffer at pH 7.4 and incubated with NTR (50 µg/mL) and NADH (2 mM) at 37 °C, and the concentrations of the derivatives and 5′-DFUR during the bioreduction were detected by high-performance liquid chromatography (HPLC). The designed target compounds 1c–3c could be metabolized to form 5′-DFUR in the presence of NTR, while the nitro-free compounds 4c–6c could not be metabolized to form 5′-DFUR. […] The metabolic rate of compound 2c was the highest, with a half-life of 0.6 h. It was completely degraded after 4 h, and 69.6% of 5′-DFUR was released. […] During the experiment, other metabolites, such as hydroxylamine derivatives and amino derivatives generated by reducing the nitro group were also detected. […] Compounds 4c, 5c and 6c, without nitro groups, remained well-stabilized under NTR conditions, with concentrations > 90% after 12 h.
(§4) The target compounds NTR and NADH were dissolved in 10 mM PBS (pH 7.4; 1% DMSO). The final concentrations of the target compounds NTR and NADH in the mixtures were 50 μM, 50 μg/mL, and 2 mM, respectively. The mixture were incubated at 37 °C. The sample (100 μL) was collected and quenched by 100 µL of cold methanol. The mixture was vortexed for 5 min and centrifuged at 10,000× g for 10 min. The supernatant was transferred to a vial for HPLC analysis at 0.25, 0.5, 1, 2, 4, 8, and 12 h.

[2] = target: T2, NTR extracted from Escherichia coli (Escherichia coli, UniProt P38489); assay: as above; format: biochemical; conditions: for time after which compound was completely degraded by NTR / 5′-DFUR released: 50 µM compound; for time after which compound was completely degraded by NTR / 5′-DFUR released / concentration remaining under NTR conditions after 12 h: NTR 50 µg/mL, NADH 2 mM, PBS pH 7.4, 37 °C; for 5′-DFUR released: at complete degradation
T2 construct: host or cells: Escherichia coli
Description: as §3, §4

[3] = system: HT29 human colon cancer cells; assay: In vitro cytotoxicity (MTT assay) in HT29 cells with or without NTR; format: cell-based; conditions: for IC50 (NTR-Free)/ IC50 (NTR): HT29, selectivity ratio; for IC50: Homo sapiens, HT-29, HT29, 24 h, MTT
Description: (§5) The cytotoxicity of the target compounds 1c–6c were evaluated in MCF-7 human breast cancer cells and HT29 human colon cancer cells. These two cell lines were chosen because 5′-DFUR is currently used to treat breast and gastrointestinal tumors. The cells were incubated with the target compounds at various concentrations for 24 h in the presence or absence of NTR. The cell viability and proliferation behavior were assessed by 3-(4,5-dimethylthiazol-2-yl)-2,5-diphenyltetrazolium (MTT) assay. The half-maximal inhibitory concentration values of the tested compounds for inhibiting cell proliferation are shown in Table 1.
(§6) MCF-7 human breast cancer cells or HT29 human colon cancer cells purchased from the National Collection of Authenticated Cell Cultures were cultured in RPMI 1640 medium, and McCoy’s 5A medium supplemented with 10% fetal bovine serum and 1% penicillin-streptomycin in a humidified 5% CO2 incubator at 37 °C. Cells in the logarithmic growth phase were inoculated into 96-well plates at a density of 1.0 × 10^4 cells per well and cultured for 24 h. The target compounds were dissolved in DMSO and diluted in medium to different concentrations. The cells were then incubated with different concentrations of the target compound for 24 h. The cells in the NTR treatment group were incubated with various concentrations of compounds, NTR (final concentration, 50 µg/mL) and NADH (final concentration, 2 mM) for 24 h. Cell viability and proliferation were measured by MTT assay. Cell viability was calculated according to the following formula: cell viability (%) = (OD value of treatment group–OD value of blank group)/(OD value of control group–OD value of blank group) × 100. The half-maximal inhibitory concentration values were calculated from concentration-response curves using GraphPad PRISM (version 5.0, GraphPad, San Diego, CA, USA).

[4] = Stability of target compounds in mouse plasma, HPLC; format: in vitro ADME, C57BL/6 mice; conditions: 50 μM, 37 °C
Description: as §1, §2

[5] = system: MCF-7 human breast cancer cells; assay: In vitro cytotoxicity (MTT assay) in MCF-7 cells with or without NTR; format: cell-based; conditions: for IC50: Homo sapiens, MCF7, MCF-7, 24 h, MTT; for IC50 (NTR-Free)/ IC50 (NTR): MCF-7, selectivity ratio
Description: as §5, §6

HT29 colon cancer cells = assay: In vivo antitumor activity in HT29 tumor-bearing mice; conditions: for tumor growth inhibition (TGI) rate: 50 mg/kg intraperitoneally every 2 days for 4 weeks, HT29 tumor-bearing C57BL/6 mice
Description: Compound 2c, which has excellent stability, a high metabolic rate, and strong cytotoxicity under NTR conditions in vitro, was selected for the in vivo evaluation of antitumor activity in tumor-bearing mice. Tumor-bearing mice were generated by the axillary injection of HT29 colon cancer cells into C57BL/6 mice. When the tumors grew to approximately 100–150 mm^3, the mice were randomly divided into negative control (vehicle), compound 2c (50 mg/kg), and positive control 5′-DFUR (50 mg/kg) groups (n = 6 each). The mice were injected intraperitoneally every 2 days for 4 weeks, and the tumor volume and body weight of the mice were measured every 2 days. No death occurred in any group of mice during the experimental period.
Four-week-old C57BL/6 mice were purchased from Jinan Pengyue Experimental Animal Breeding Co. Ltd. (Jinan, China). The mice were housed in cages under a 12-h light/dark cycle from 7:00 to 19:00 at controlled temperatures (25–26 °C) and relative humidity (50 ± 10%) throughout the experimental period. All animals were allowed to eat and drink freely unless otherwise stated and allowed to acclimate for 1 week before the experiment. All animal experimental protocols were performed in accordance with applicable institutional and governmental regulations concerning the ethical use of animals (AP2024022954).
The tumor-bearing mice model was established by the subcutaneous injection of HT29 cells (1 × 10^7 cells/mL) purchased from the National Collection of Authenticated Cell Cultures to the right axilla of C57BL/6 mice (100 µL/mouse). When the tumor size reached 100–150 mm^3, the mice were evenly divided into negative control (vehicle), group 2c (50 mg/kg), and 5′-DFUR (50 mg/kg) groups (n = 6 each). Compound 2c and 5′-DFUR were dissolved in a solution containing 10% ethanol, 10% castor oil, and 80% saline that also served as the negative control. The mice were injected intraperitoneally every 2 days for 4 weeks, and the tumor volumes and body weights of the mice were measured every 2 days. Tumor volume was calculated using the following formula: tumor volume = length (mm) × width (mm) × width (mm) × 0.5. The TGI rate was determined as follows: TGI = 1 − (treatment final volume − treatment initial volume)/(control final volume − control initial volume) × 100%.

[6] = Stability of target compounds in phosphate-buffered saline (pH 6.5 and pH 7.4), HPLC; format: physicochemical; conditions: PBS pH 6.5 and 7.4, mouse and rat plasma (Figure S1)
Description: as §1, §2

[7] = medium with NTR and NADH 2 mM, read-out: IC50 NTR
[8] = medium without NTR, read-out: IC50 NTR-Free

T1 sequence (P38489 whole entry): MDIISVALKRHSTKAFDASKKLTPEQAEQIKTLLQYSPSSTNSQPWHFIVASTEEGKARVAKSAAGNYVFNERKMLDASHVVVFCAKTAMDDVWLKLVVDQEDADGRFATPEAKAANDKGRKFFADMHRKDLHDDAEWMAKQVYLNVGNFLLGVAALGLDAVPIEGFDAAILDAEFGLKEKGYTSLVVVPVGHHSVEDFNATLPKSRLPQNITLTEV
T2 sequence (P38489 whole entry): as above

Structure (SMILES): C[C@H]1O[C@@H](n2cc(F)c(=O)n(Cc3ccc([N+](=O)[O-])cc3)c2=O)[C@H](O)[C@@H]1O [Compound 1c]
- concentration relative to initial concentration after 24 h in rat plasma [1]: 86%
- half-life at 50 µM (NTR): 1.3 h
- time after which compound was completely degraded by NTR [2]: 12 h
- 5′-DFUR released [2]: 45.1%
- IC50 (NTR-Free)/ IC50 (NTR) [3]: 7.39
- IC50 [3, 7]: 79 µM
- IC50 [3, 8]: 584 µM
- concentration relative to initial concentration after 24 h in mouse plasma [4]: 89%
- IC50 [5, 7]: 106 µM
- IC50 [5, 8]: 470 µM
- IC50 (NTR-Free)/ IC50 (NTR) [5]: 4.42

Structure (SMILES): C[C@H]1O[C@@H](n2cc(F)c(=O)n(Cc3ccc([N+](=O)[O-])o3)c2=O)[C@H](O)[C@@H]1O [Compound 2c]
- concentration relative to initial concentration after 24 h in rat plasma [1]: 84%
- half-life at 50 µM (NTR): 0.6 h
- time after which compound was completely degraded by NTR [2]: 4 h
- 5′-DFUR released [2]: 69.6%
- amount of 5′-DFUR released (AUC0–12h of relative amount), comparison in words ([2]; versus 1c and 3c, Figure 4d): significantly higher
- drug-related toxic reactions (in words) (HT29 colon cancer cells; 50 mg/kg i.p. every 2 days for 4 weeks): No significant drug-related toxic reactions were observed
- body weight of mice (in words) (HT29 colon cancer cells; 50 mg/kg i.p. every 2 days for 4 weeks, versus positive control 5′-DFUR group): smaller weight fluctuations and were slightly higher than those of the positive control group
- tumor growth inhibition (TGI) rate (HT29 colon cancer cells): 77.5%
- IC50 (NTR-Free)/ IC50 (NTR) [3]: 7.62
- IC50 [3, 7]: 57.4 µM
- IC50 [3, 8]: 437 µM
- concentration relative to initial concentration after 24 h in mouse plasma [4]: 88%
- IC50 [5, 7]: 80.3 µM
- IC50 [5, 8]: 400 µM
- IC50 (NTR-Free)/ IC50 (NTR) [5]: 4.99

Structure (SMILES): C[C@H]1O[C@@H](n2cc(F)c(=O)n(Cc3cccs3)c2=O)[C@H](O)[C@@H]1O [Compound 6c]
- stability in PBS at different pH values and plasma (in words) [6]: similarly stable
- concentration remaining under NTR conditions after 12 h [2]: > 90%
- IC50 (NTR-Free)/ IC50 (NTR) [3]: 1.02
- IC50 [3, 7]: 465 µM
- IC50 [3, 8]: 474 µM
- IC50 [5, 7]: 473 µM
- IC50 [5, 8]: 468 µM
- IC50 (NTR-Free)/ IC50 (NTR) [5]: 0.99

Structure (SMILES): C[C@H]1O[C@@H](n2cc(F)c(=O)n(Cc3ccccc3)c2=O)[C@H](O)[C@@H]1O [Compound 4c]
- stability in PBS at different pH values and plasma (in words) [6]: similarly stable
- concentration remaining under NTR conditions after 12 h [2]: > 90%
- IC50 (NTR-Free)/ IC50 (NTR) [3]: 1.01
- IC50 [3, 7]: 614 µM
- IC50 [3, 8]: 621 µM
- IC50 [5, 7]: 537 µM
- IC50 [5, 8]: 495 µM
- IC50 (NTR-Free)/ IC50 (NTR) [5]: 0.92

Structure (SMILES): C[C@H]1O[C@@H](n2cc(F)c(=O)n(Cc3ccc([N+](=O)[O-])s3)c2=O)[C@H](O)[C@@H]1O [Compound 3c]
- concentration relative to initial concentration after 24 h in rat plasma [1]: 81%
- half-life at 50 µM (NTR): 1 h
- time after which compound was completely degraded by NTR [2]: 8 h
- 5′-DFUR released [2]: 55.6%
- IC50 (NTR-Free)/ IC50 (NTR) [3]: 7.22
- IC50 [3, 7]: 63.3 µM
- IC50 [3, 8]: 457 µM
- concentration relative to initial concentration after 24 h in mouse plasma [4]: 83%
- IC50 [5, 7]: 96.4 µM
- IC50 [5, 8]: 435 µM
- IC50 (NTR-Free)/ IC50 (NTR) [5]: 4.52

Structure (SMILES): C[C@H]1O[C@@H](n2cc(F)c(=O)[nH]c2=O)[C@H](O)[C@@H]1O [5′-DFUR, 5′-deoxy-5-fluorouridine, reference compound]
- tumor growth inhibition (TGI) rate (HT29 colon cancer cells): 83.0%
- IC50 (NTR-Free)/ IC50 (NTR) [3]: 1.05
- IC50 [3, 7]: 48.1 µM
- IC50 [3, 8]: 50.4 µM
- IC50 [5, 7]: 86.7 µM
- IC50 [5, 8]: 83.6 µM
- IC50 (NTR-Free)/ IC50 (NTR) [5]: 0.96

Structure (SMILES): C[C@H]1O[C@@H](n2cc(F)c(=O)n(Cc3ccco3)c2=O)[C@H](O)[C@@H]1O [Compound 5c]
- stability in PBS at different pH values and plasma (in words) [6]: similarly stable
- concentration remaining under NTR conditions after 12 h [2]: > 90%
- IC50 (NTR-Free)/ IC50 (NTR) [3]: 1.09
- IC50 [3, 7]: 422 µM
- IC50 [3, 8]: 459 µM
- IC50 [5, 7]: 423 µM
- IC50 [5, 8]: 412 µM
- IC50 (NTR-Free)/ IC50 (NTR) [5]: 0.97
